The values below come from patent US9012635B2, “Pyridone amides and analogs exhibiting anti-cancer and anti-proliferative activities” (Deciphera Pharmaceuticals, LLC, priority 2013, dated 2015).

Where a name gives a salt, the structure may show the parent alone.

In one assay the test system is MKN-45 cells. Put plainly: MKN-45 cell proliferation assay (resazurin). Type of assay: cell-based. Particulars: Homo sapiens, 67 h + 5 h resazurin. As to the method: MKN-45 cells (catalog #JCRB0254) were obtained from the Japan Health Science Research Resources Bank, Osaka, Japan. Briefly, cells were grown in RPMI 1640 media supplemented with 10% characterized fetal bovine serum (Invitrogen, Carlsbad, Calif.) at 37° C., 5% CO2, 95% humidity. Cells were allowed to expand until reaching 70-95% confluency at which point they were subcultured or harvested for assay use.
(§1) A serial dilution of test compound was dispensed into a 96-well black clear bottom plate (Corning, Corning, N.Y.). Five thousand cells were added per well in 200 μL complete growth medium. Plates were incubated for 67 hours at 37° C., 5% CO2, 95% humidity. At the end of the incubation period 40 μL of a 440 μM solution of resazurin (Sigma, St. Louis, Mo.) in PBS was added to each well and plates were incubated for an additional 5 h at 37° C., 5% CO2, 95% humidity. Plates were read on a Synergy2 reader (Biotek, Winooski, Vt.) using an excitation of 540 nm and an emission of 600 nm. Data was analyzed using Prism software (GraphPad, San Diego, Calif.) to calculate IC50 values.
In general terms: Resazurin is reduced to fluorescent resorufin, in cell work by metabolically active cells.

In assay [1] the target is T1, c-KIT kinase (Seq. ID No. 1) (Homo sapiens, UniProt P10721).
T1 construct: c-KIT (cKIT residues T544-V976, from ProQinase, 5.4 nM); purchased ProQinase
Put plainly: c-KIT kinase assay (pyruvate kinase/lactate dehydrogenase coupled, A340). The note with it: enzymatic assay, ATP 200 μM; read-out: cKIT. Type of assay: biochemical. As to the method:
Activity of c-KIT kinase (Seq. ID No. 1) was determined by following the production of ADP from the kinase reaction through coupling with the pyruvate kinase/lactate dehydrogenase system (e.g., Schindler et al. Science 2000, 289, pp. 1938-1942). In this assay, the oxidation of NADH (thus the decrease at A340 nm) was continuously monitored spectrophotometrically. The reaction mixture (100 μl) contained c-KIT (cKIT residues T544-V976, from ProQinase, 5.4 nM), polyE4Y (1 mg/mL), MgCl2 (10 mM), pyruvate kinase (4 units), lactate dehydrogenase (0.7 units), phosphoenol pyruvate (1 mM), and NADH (0.28 mM) in 90 mM Tris buffer containing 0.2% octyl-glucoside and 1% DMSO, pH 7.5. Test compounds were incubated with c-KIT (Seq. ID No. 1) and other reaction reagents at 22° C. for less than 2 min before ATP (200 μM) was added to start the reaction. The absorption at 340 nm was monitored continuously for 0.5 hours at 30° C. on Polarstar Optima plate reader (BMG). The reaction rate was calculated using the 0 to 0.5 h time frame. Percent inhibition was obtained by comparison of reaction rate with that of a control (i.e., with no test compound). IC50 values were calculated from a series of percent inhibition values determined at a range of inhibitor concentrations using software routines as implemented in the GraphPad Prism software package.

For assay [2], the target named is KDR kinase (Seq ID No. 3) (Homo sapiens, UniProt P35968, DEL940-989/E990V). Put plainly: KDR kinase assay (assays K1, K2, K3). Particulars: enzymatic assay; variant K1, K2 or K3 not given. Type of assay: biochemical. The method, then:
The activity of KDR kinase was determined by following the production of ADP from the kinase reaction through coupling with the pyruvate kinase/lactate dehydrogenase system (e.g., Schindler et al. Science 2000, 289, pp. 1938-1942). In this assay, the oxidation of NADH (thus the decrease at A340 nm) was continuously monitored spectrophotometrically. The reaction mixture (100 μl) contained KDR (Seq ID No. 3, 1.5 nM to 7.1 nM, nominal concentration), polyE4Y (1 mg/mL), pyruvate kinase (3.5 units), lactate dehydrogenase (5.5 units), phosphoenolpyruvate (1 mM), and NADH (0.28 mM) in 60 mM Tris buffer containing 0.13% octyl-glucoside, 13 mM MgCl2, 6.8 mM DTT, test compound, and 3.5% DMSO at pH 7.5. The reaction was initiated by adding ATP (0.2 mM, final concentration). The absorption at 340 nm was continuously monitored for 3 h at 30° C. on a Polarstar Optima plate reader (BMG) or instrument of similar capacity. The reaction rate was calculated using the 1 h to 2 h time frame. Percent inhibition was obtained by comparison of reaction rate with that of a control (i.e., with no test compound). IC50 values were calculated from a series of percent inhibition values determined at a range of inhibitor concentrations using software routines as implemented in the GraphPad Prism software package.
KDR kinase assay K2 is the same as for assay K1 except that (1) a nominal concentration of 2.1 nM of enzyme was employed (2) the reaction was pre-incubated with test compound at 30° C. for 2 h prior to initiation with ATP and (3) 1.0 mM ATP (final concentration) was used to initiate the reaction.
KDR kinase assay K3 is the same as for assay K1 except that (1) a nominal concentration of 1.1 nM of enzyme was employed, (2) the buffer components per 100 μl reaction mixture were as follows: 75 mM Tris buffer containing 0.066% octyl-glucoside, 17 mM MgCl2, and 1% DMSO at pH 7.5, (3) the final concentration of DTT was 0.66 mM, (4) the reaction was pre-incubated with test compound at 30° C. for 1 h prior to initiation with ATP, and (5) 1.0 mM ATP (final concentration) was used to initiate the reaction.

Assay [3] concerns the target T2, c-MET kinase (Seq. ID No. 2) (Homo sapiens, UniProt P08581).
T2 construct: c-MET (c-MET residues: 956-1390, from Invitrogen, catalogue #PV3143, 6 nM); purchased Invitrogen PV3143
The experiment in a line: c-MET kinase assay (pyruvate kinase/lactate dehydrogenase coupled, A340). It is filed as biochemical. Particulars: enzymatic assay, 0.5 h pre-incubation, ATP 100 μM; read-out: cMET. The method, then:
Activity of c-MET kinase (Seq. ID No. 2) was determined by following the production of ADP from the kinase reaction through coupling with the pyruvate kinase/lactate dehydrogenase system (e.g., Schindler et al. Science 2000, 289, pp. 1938-1942). In this assay, the oxidation of NADH (thus the decrease at A340 nm) was continuously monitored spectrophotometrically. The reaction mixture (100 μl) contained c-MET (c-MET residues: 956-1390, from Invitrogen, catalogue #PV3143, 6 nM), polyE4Y (1 mg/mL), MgCl2 (10 mM), pyruvate kinase (4 units), lactate dehydrogenase (0.7 units), phosphoenol pyruvate (1 mM), and NADH (0.28 mM) in 90 mM Tris buffer containing 0.25 mM DTT, 0.2% octyl-glucoside and 1% DMSO, pH 7.5. Test compounds were incubated with c-MET (Seq. ID No. 2) and other reaction reagents at 22° C. for 0.5 h before ATP (100 μM) was added to start the reaction. The absorption at 340 nm was monitored continuously for 2 hours at 30° C. on Polarstar Optima plate reader (BMG). The reaction rate was calculated using the 1.0 to 2.0 h time frame. Percent inhibition was obtained by comparison of reaction rate with that of a control (i.e., with no test compound). IC50 values were calculated from a series of percent inhibition values determined at a range of inhibitor concentrations using software routines as implemented in the GraphPad Prism software package.

Another assay has as its system EBC-1 cells. The experiment in a line: EBC-1 cell proliferation assay (resazurin). Type of assay: cell-based. Particulars: Homo sapiens, 67 h + 5 h resazurin, read-out: EBC1 Proliferation. The method, then: EBC-1 cells (catalog #JCRB0820) were obtained from the Japan Health Science Research Resources Bank, Osaka, Japan. Briefly, cells were grown in DMEM supplemented with 10% characterized fetal bovine serum (Invitrogen, Carlsbad, Calif.) at 37° C., 5% CO2, 95% humidity. Cells were allowed to expand until reaching 70-95% confluency at which point they were subcultured or harvested for assay use.
as §1, with “N.Y.). For each cell line, five” for “N.Y.). Five”, “and” for “and plates were”, “5 hours” for “5 h”

T2 sequence (P08581 with tags, fused parts or gaps): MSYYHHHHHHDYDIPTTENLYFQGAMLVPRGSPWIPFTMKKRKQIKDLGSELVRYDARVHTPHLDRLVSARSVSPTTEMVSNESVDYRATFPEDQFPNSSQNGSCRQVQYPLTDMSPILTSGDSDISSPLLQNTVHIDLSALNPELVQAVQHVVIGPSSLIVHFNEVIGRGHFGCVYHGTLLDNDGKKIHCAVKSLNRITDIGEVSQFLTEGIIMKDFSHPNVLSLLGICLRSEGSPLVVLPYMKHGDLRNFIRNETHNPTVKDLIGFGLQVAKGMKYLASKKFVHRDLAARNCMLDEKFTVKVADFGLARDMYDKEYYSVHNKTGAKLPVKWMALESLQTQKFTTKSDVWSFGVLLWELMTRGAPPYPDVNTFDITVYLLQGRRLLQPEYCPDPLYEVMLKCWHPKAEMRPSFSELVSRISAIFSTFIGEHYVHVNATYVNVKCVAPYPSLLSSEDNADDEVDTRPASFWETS
Chain of KDR kinase (Seq ID No. 3) (P35968 with tags, fused parts or gaps DEL940-989/E990V): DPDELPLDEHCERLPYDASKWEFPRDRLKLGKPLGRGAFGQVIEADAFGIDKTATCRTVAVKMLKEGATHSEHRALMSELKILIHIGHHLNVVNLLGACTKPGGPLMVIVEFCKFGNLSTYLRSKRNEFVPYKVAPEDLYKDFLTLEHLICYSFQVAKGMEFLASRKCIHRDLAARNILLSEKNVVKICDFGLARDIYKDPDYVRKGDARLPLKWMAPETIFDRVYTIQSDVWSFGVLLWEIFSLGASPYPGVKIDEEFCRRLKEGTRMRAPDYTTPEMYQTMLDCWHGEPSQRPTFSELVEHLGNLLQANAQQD
T1 sequence (P10721 with tags, fused parts or gaps): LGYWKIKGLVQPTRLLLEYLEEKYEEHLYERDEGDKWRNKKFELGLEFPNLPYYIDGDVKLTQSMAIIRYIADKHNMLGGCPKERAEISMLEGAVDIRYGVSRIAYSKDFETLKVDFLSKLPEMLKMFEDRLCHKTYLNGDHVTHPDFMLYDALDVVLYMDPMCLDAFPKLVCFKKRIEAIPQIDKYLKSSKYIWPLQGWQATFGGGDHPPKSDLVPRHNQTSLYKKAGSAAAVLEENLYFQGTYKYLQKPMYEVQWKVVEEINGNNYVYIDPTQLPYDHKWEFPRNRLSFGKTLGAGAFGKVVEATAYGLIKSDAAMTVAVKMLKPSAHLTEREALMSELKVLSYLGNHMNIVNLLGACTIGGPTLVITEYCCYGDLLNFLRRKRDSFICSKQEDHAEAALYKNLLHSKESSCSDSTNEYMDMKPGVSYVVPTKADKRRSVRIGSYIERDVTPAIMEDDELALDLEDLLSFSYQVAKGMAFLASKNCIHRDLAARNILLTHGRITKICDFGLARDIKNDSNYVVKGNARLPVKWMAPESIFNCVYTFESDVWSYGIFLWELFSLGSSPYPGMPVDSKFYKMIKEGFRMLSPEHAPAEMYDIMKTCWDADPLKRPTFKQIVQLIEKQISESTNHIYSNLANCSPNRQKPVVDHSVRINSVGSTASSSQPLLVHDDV

In the case of `CCOc1ccn(-c2ccc(F)cc2)c(=O)c1C(=O)Nc1cc(F)c(Oc2ccnc(-c3cnn(C(C)C)c3)c2)cc1F` [Example 6, N-(2,5-difluoro-4-((2-(1-isopropyl-1H-pyrazol-4-yl)pyridin-4-yl)oxy)phenyl)-4-ethoxy-1-(4-fluorophenyl)-2-oxo-1,2-dihydropyridine-3-carboxamide], the IC50 is 100 to 1000 nM in the assay with MKN-45 cells; greater than 1000 nM in assay [1]; greater than 1000 nM in assay [2]; no more than 100 nM in assay [3]; 100 to 1000 nM with EBC-1 cells.

In the case of `CCOc1ccn(-c2ccc(F)cc2)c(=O)c1C(=O)Nc1cc(F)c(Oc2ccnc(-c3cn[nH]c3)c2)cc1F` [Example 8, N-(4-((2-(1H-pyrazol-4-yl)pyridin-4-yl)oxy)-2,5-difluorophenyl)-4-ethoxy-1-(4-fluorophenyl)-2-oxo-1,2-dihydropyridine-3-carboxamide hydrochloride], the IC50 in the assay on MKN-45 cells is 100 to 1000 nM; in assay [1], greater than 1000 nM; in assay [2], greater than 1000 nM; in assay [3] it was no more than 100 nM; in the assay on EBC-1 cells, 100 to 1000 nM.

Regarding `CCOc1ccn(-c2ccc(F)cc2)c(=O)c1C(=O)Nc1cc(F)c(Oc2ccnc(-c3cnn(CC)c3)c2)cc1F` [Example 7, 4-ethoxy-N-(4-((2-(1-ethyl-1H-pyrazol-4-yl)pyridin-4-yl)oxy)-2,5-difluorophenyl)-1-(4-fluorophenyl)-2-oxo-1,2-dihydropyridine-3-carboxamide], the IC50 with MKN-45 cells was no more than 100 nM; in assay [1], greater than 1000 nM; in assay [2], greater than 1000 nM; in assay [3], no more than 100 nM; in the assay with EBC-1 cells it was no more than 100 nM.

Turning to `Cn1cc(C(=O)Nc2cc(F)c(Oc3ccnc(-c4cnn(C)c4)c3)cc2F)c(=O)c(-c2ccc(F)cc2)c1` [Example 9, N-(2,5-difluoro-4-((2-(1-methyl-1H-pyrazol-4-yl)pyridin-4-yl)oxy)phenyl)-5-(4-fluorophenyl)-1-methyl-4-oxo-1,4-dihydropyridine-3-carboxamide], the IC50 was no more than 100 nM in assay [1], greater than 1000 nM in assay [2] and no more than 100 nM in assay [3].

Consider `Cn1cc(-c2cc(Oc3cc(F)c(NC(=O)c4c[nH]cc(-c5ccc(F)cc5)c4=O)cc3F)ccn2)cn1` [Example 10, N-(2,5-difluoro-4-((2-(1-methyl-1H-pyrazol-4-yl)pyridin-4-yl)oxy)phenyl)-5-(4-fluorophenyl)-4-oxo-1,4-dihydropyridine-3-carboxamide], for which the values for the IC50 in assay [1], in assay [2] and in assay [3] were no more than 100 nM, 100 to 1000 nM and no more than 100 nM, respectively.

On to `CNc1ccn(-c2ccc(F)cc2)c(=O)c1C(=O)Nc1cc(F)c(Oc2ccnc(-c3cnn(C)c3)c2)cc1F` [Example 4, N-(2,5-difluoro-4-((2-(1-methyl-1H-pyrazol-4-yl)pyridin-4-yl)oxy)phenyl)-1-(4-fluorophenyl)-4-(methylamino)-2-oxo-1,2-dihydropyridine-3-carboxamide], for which the IC50 was greater than 1000 nM in the assay with MKN-45 cells; 100 to 1000 nM in assay [1]; greater than 1000 nM in assay [2]; no more than 100 nM in assay [3]; 100 to 1000 nM in the assay with EBC-1 cells.
